# Values joined by “and” are separate entries in the source; they are usually repeats but may differ in a detail not shown here. Equal values may be shown once. Toxic doses and inconclusive results are not listed.
# System: BDF1 mice, P388 leukemia ip, median survival T/C
# Test: NCI In Vivo Anticancer Drug Screen. Data for tumor model P388 Leukemia (intraperitoneal) in B6D2F1 (BDF1) mice
# Details: endpoint: median survival time, higher = longer survival
# Outline: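 Antitumour effect was judged in vivo: survival in drug-treated mice, normalised to that of vehicle-dosed controls, gives the reported T/C.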
# [1] = dose: 100.0 mg/kg/injection, schedule: Q01DX009 (ip), vehicle: saline with Tween-80
# [2] = dose: 200.0 mg/kg/injection, schedule: Q01DX009 (ip), vehicle: saline with Tween-80
# [3] = dose: 100.0 mg/kg/injection, schedule: Q04DX003 (ip), vehicle: saline with Tween-80
# [4] = dose: 200.0 mg/kg/injection, schedule: Q04DX003 (ip), vehicle: saline with Tween-80
# [5] = dose: 100.0 mg/kg/injection, schedule: Q04DX003 (ip), vehicle: water
# [6] = dose: 200.0 mg/kg/injection, schedule: Q04DX003 (ip), vehicle: water
# [7] = dose: 400.0 mg/kg/injection, schedule: Q04DX003 (ip), vehicle: water
# [8] = dose: 400.0 mg/kg/injection, schedule: Q04DX003 (ip), vehicle: saline with Tween-80
compound,measurement,setting,value
O=C(N=Nc1c(O)[nH]c2c(Cl)cc(Cl)cc12)C(=O)Nc1cccc(C(F)(F)F)c1,T/C,[1],90 % of control
same,T/C,[2],96 % of control
COc1cc(N=Nc2c[nH]c3ccccc23)c(OC)cc1N=Nc1ccc([N+](=O)[O-])cc1,T/C,"dose: 50.0 mg/kg/injection, schedule: Q01DX005 (ip), vehicle: saline with Tween-80",92 % of control
same,T/C,"dose: 100.0 mg/kg/injection, schedule: Q01DX005 (ip), vehicle: saline with Tween-80",106 % of control
same,T/C,"dose: 200.0 mg/kg/injection, schedule: Q01DX005 (ip), vehicle: saline with Tween-80",111 % of control
CCCCCC[N+]1(C)CC2C3C=CC(C3)C2C1 (stereo not given),T/C,"dose: 75.0 mg/kg/injection, schedule: Q01DX009 (ip), vehicle: saline",90 % of control
C[N+](C)(C)/N=C1\CCc2ccccc21,T/C,"dose: 50.0 mg/kg/injection, schedule: Q04DX003 (ip), vehicle: saline with Tween-80",95 % of control
same,T/C,[3],95 % of control
same,T/C,[4],95 % of control
CCCCc1ccc(NC(=O)N(CCCl)N=O)cc1,T/C,"dose: 2.5 mg/kg/injection, schedule: Q01DX009 (ip), vehicle: Klucel (hydroxypropylcellulose) (HPC)",160 % of control
same,T/C,"dose: 2.5 mg/kg/injection, schedule: Q04DX003 (ip), vehicle: Klucel (hydroxypropylcellulose) (HPC)",175 % of control
same,T/C,"dose: 4.0 mg/kg/injection, schedule: Q01DX009 (ip), vehicle: Klucel (hydroxypropylcellulose) (HPC)",180 % of control
same,T/C,"dose: 4.0 mg/kg/injection, schedule: Q04DX003 (ip), vehicle: Klucel (hydroxypropylcellulose) (HPC)",191 % of control
same,T/C,"dose: 8.0 mg/kg/injection, schedule: Q01DX009 (ip), vehicle: Klucel (hydroxypropylcellulose) (HPC)",230 % of control
same,T/C,"dose: 8.0 mg/kg/injection, schedule: Q04DX003 (ip), vehicle: Klucel (hydroxypropylcellulose) (HPC)",208 % of control
same,T/C,"dose: 10.0 mg/kg/injection, schedule: Q04DX003 (ip), vehicle: other",172 % of control
same,T/C,"dose: 16.0 mg/kg/injection, schedule: Q01DX009 (ip), vehicle: Klucel (hydroxypropylcellulose) (HPC)",225 % of control
same,T/C,"dose: 16.0 mg/kg/injection, schedule: Q04DX003 (ip), vehicle: Klucel (hydroxypropylcellulose) (HPC)",233 % of control
same,T/C,"dose: 20.0 mg/kg/injection, schedule: Q04DX003 (ip), vehicle: other",172 % of control
same,T/C,"dose: 32.0 mg/kg/injection, schedule: Q01DX009 (ip), vehicle: Klucel (hydroxypropylcellulose) (HPC)",100 % of control
same,T/C,"dose: 66.0 mg/kg/injection, schedule: Q04DX003 (ip), vehicle: other",222 % of control
same,T/C,"dose: 99.0 mg/kg/injection, schedule: Q04DX003 (ip), vehicle: other",186 % of control
same,T/C,"dose: 150.0 mg/kg/injection, schedule: Q04DX003 (ip), vehicle: other",254 % of control
same,T/C,"dose: 225.0 mg/kg/injection, schedule: Q04DX003 (ip), vehicle: other",245 % of control
Cc1ncc2n1C=CN(C(=O)c1ccc([N+](=O)[O-])cc1)C2O (stereo not given),T/C,"dose: 50.0 mg/kg/injection, schedule: Q01DX009 (ip), vehicle: water",103 % of control
same,T/C,"dose: 100.0 mg/kg/injection, schedule: Q01DX009 (ip), vehicle: water",94 % of control
same,T/C,[5],102 % of control
same,T/C,"dose: 200.0 mg/kg/injection, schedule: Q01DX009 (ip), vehicle: water",93 % of control
same,T/C,[6],93 % of control
same,T/C,"dose: 400.0 mg/kg/injection, schedule: Q01DX009 (ip), vehicle: water",94 % of control
same,T/C,[7],98 % of control
Cc1cc(O)c2c(c1O)C(=O)c1ccccc1C2=O,T/C,"dose: 100.0 mg/kg/injection, schedule: Q04DX003 (ip), vehicle: saline",91 % of control
same,T/C,"dose: 200.0 mg/kg/injection, schedule: Q04DX003 (ip), vehicle: saline",95 % of control
same,T/C,"dose: 400.0 mg/kg/injection, schedule: Q04DX003 (ip), vehicle: saline",95 % of control
O=C1C=C(Nc2nc(O)cc(=O)[nH]2)c2ccccc2C1=O,T/C,"dose: 37.5 mg/kg/injection, schedule: Q01DX001 (ip), vehicle: Klucel (hydroxypropylcellulose) (HPC)",100 % of control
same,T/C,"dose: 75.0 mg/kg/injection, schedule: Q01DX001 (ip), vehicle: Klucel (hydroxypropylcellulose) (HPC)",100 % of control
same,T/C,"dose: 150.0 mg/kg/injection, schedule: Q01DX001 (ip), vehicle: Klucel (hydroxypropylcellulose) (HPC)",100 % of control
same,T/C,"dose: 150.0 mg/kg/injection, schedule: Q04DX003 (ip), vehicle: Klucel (hydroxypropylcellulose) (HPC)",95 % of control
Cc1ccc(S(=O)(=O)N/N=C/C(O)CO)cc1 (stereo not given),T/C,"dose: 3.13 mg/kg/injection, schedule: Q01DX009 (ip), vehicle: other",98 % of control
same,T/C,"dose: 6.25 mg/kg/injection, schedule: Q01DX009 (ip), vehicle: other",91 % of control
same,T/C,"dose: 12.5 mg/kg/injection, schedule: Q01DX009 (ip), vehicle: other",98 % of control and 101 % of control
same,T/C,"dose: 25.0 mg/kg/injection, schedule: Q01DX009 (ip), vehicle: other",98 % of control
same,T/C,"dose: 50.0 mg/kg/injection, schedule: Q01DX009 (ip), vehicle: other",96 % of control
same,T/C,"dose: 100.0 mg/kg/injection, schedule: Q01DX009 (ip), vehicle: other",99 % of control
same,T/C,"dose: 200.0 mg/kg/injection, schedule: Q01DX009 (ip), vehicle: other",98 % of control
same,T/C,"dose: 400.0 mg/kg/injection, schedule: Q01DX009 (ip), vehicle: other",102 % of control
CCCCNC(C)C1(O)Cc2c(O)c3c(c(O)c2C(OC2CC(N)C(O)C(C)O2)C1)C(=O)c1c(OC)cccc1C3=O (stereo not given),T/C,"dose: 10.0 mg/kg/injection, schedule: Q01DX009 (ip), vehicle: water",157 % of control
same,T/C,"dose: 20.0 mg/kg/injection, schedule: Q01DX009 (ip), vehicle: water",168 % of control
same,T/C,"dose: 25.0 mg/kg/injection, schedule: Q04DX003 (ip), vehicle: water",116 % of control
same,T/C,"dose: 40.0 mg/kg/injection, schedule: Q01DX009 (ip), vehicle: water",185 % of control
same,T/C,"dose: 50.0 mg/kg/injection, schedule: Q04DX003 (ip), vehicle: water",114 % of control
same,T/C,[5],105 % of control
same,T/C,[6],151 % of control
same,T/C,[7],118 % of control
Cc1ccc(S(=O)(=O)c2ccc(Sc3cccc[n+]3[O-])c3no[n+]([O-])c23)cc1,T/C,"dose: 15.0 mg/kg/injection, schedule: Q01DX009 (ip), vehicle: saline with Tween-80",97 % of control
same,T/C,"dose: 30.0 mg/kg/injection, schedule: Q01DX009 (ip), vehicle: saline with Tween-80",114 % of control
same,T/C,"dose: 60.0 mg/kg/injection, schedule: Q01DX009 (ip), vehicle: saline with Tween-80",90 % of control
CC(=O)[C@@]12OC(C)(C)O[C@@H]1C[C@H]1[C@@H]3C[C@H](C)C4=CC(=O)CC[C@]4(C)[C@H]3CC[C@@]12C,T/C,[1],104 % of control
same,T/C,[3],109 % of control
same,T/C,[2],104 % of control
same,T/C,[4],95 % of control
same,T/C,[8],104 % of control
Cc1cc(=O)[nH]c(N/N=C/c2ccc(N(CCCl)CCCl)cc2)n1,T/C,[3],95 % of control
same,T/C,[4],86 % of control
same,T/C,[8],95 % of control

# Source: PubChem BioAssay AID328 (DTP/NCI, 2004)
